The text below walks through data of the supplement of paper PMC4862054.

For experiment [1], the system named is MDA-MB-468. As to conditions: 72 h. The procedure, abridged: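 The plates used were 384-well plates holding compound at 5 concentrations in 10-fold steps across a compound-specific 10,000-fold range, into which breast cancer cell lines were seeded in 20 µl suspension. Following 72 h incubation, CellTox Green fluorescence was read at 485/520 nm, and CellTiter-Glo luminescence was read after 10 min at room temperature. Normalisation on each plate used 0.1 % DMSO and a positive kill control. Dose-response curves gave the EC50, which was censored at the top concentration.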

Experiment [2] concerns BT-474. The experiment can be described thus: normalised viability (% of control), CellTiter-Blue; higher = more viable cells (about 100 = DMSO control). As to conditions: incubation time: 72 h. Put shortly: (§1)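 384-well plates were pre-loaded with compound in 5 µl medium before 20 µl of breast cancer cell suspension was seeded. Following 72 h incubation, 2.5 µl CellTiter-Blue reagent was added for 2 h at 37 °C. Fluorescence was read at 560/590 nm and plates were normalised to vehicle (100) and a positive kill control (0), checked by Z'-factor. Normalised viability is reported at a single listed concentration of the series.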

The test system of experiment [3] is BT-549. The description is as above. As to conditions: incubation time: 72 h. The procedure, abridged:
as §1

The test system of experiment [4] is CAL-120. The description is as above. As to conditions: incubation time: 72 h. The procedure, abridged:
as §1

In experiment [5] the test system is CAL-148. The experiment is described as above. As to conditions: incubation time: 72 h. Put shortly: as §1
The test system of experiment [6] is CAL-51. Described as above. As to conditions: incubation time: 72 h. Put shortly:
as §1

The subject of experiment [7] is CAL-85-1. The experiment is described as above. As to conditions: incubation time: 72 h. Put shortly: as §1
The test system of experiment [8] is DU-4475. The experiment is described as above. As to conditions: incubation time: 72 h. The procedure, abridged: as §1
In experiment [9] the test system is HCC1143. Described as above. As to conditions: incubation time: 72 h. The procedure, abridged:
as §1

Experiment [10] concerns HCC1599. Described as above. As to conditions: incubation time: 72 h. Put shortly: as §1
Experiment [11] has as its system HCC1937. The experiment is described as above. As to conditions: incubation time: 72 h. The procedure, abridged:
as §1

The subject of experiment [12] is HDQ-P1. Described as above. As to conditions: incubation time: 72 h. Put shortly:
as §1

Experiment [13] deals with Hs578T. The description is as above. As to conditions: incubation time: 72 h. The procedure, abridged:
as §1

Experiment [14] deals with MDA-MB-231. The description is as above. As to conditions: incubation time: 72 h. The procedure, abridged: as §1
Experiment [15] has as its system MDA-MB-436. The experiment is described as above. As to conditions: incubation time: 72 h. Put shortly: as §1
In experiment [16] the test system is MDA-MB-453. The description is as above. As to conditions: incubation time: 72 h. The procedure, abridged:
as §1

Experiment [17] has as its system MDA-MB-468. Described as above. As to conditions: incubation time: 72 h. Put shortly: as §1
The test system of experiment [18] is MFM-223. Described as above. As to conditions: incubation time: 72 h. The procedure, abridged: as §1
Experiment [19] concerns SK-BR-3. Described as above. As to conditions: incubation time: 72 h. The procedure, abridged:
as §1

Each structure is given as a SMILES string. “And” between values parts separate entries of the source, which are not always exact repeats. Equal values may be shown once.

For `O=C(/C=C/c1cccc(S(=O)(=O)Nc2ccccc2)c1)NO` [Belinostat], the “EC50, CellTiter-Glo” value in experiment [1] stood at 410 nM. For the same molecule, the normalised viability in experiment [2] (10 nM) is 106%; in experiment [2] (1000 nM), 47.5%; in experiment [2] (10000 nM), 2.17%; in experiment [3] (10 nM) it was 108%; in experiment [3] (1000 nM), 67.8%; in [3] (10000 nM) it was 13.1%. Also, the normalised viability is 87.7% in [4] (10 nM); 20.5% in experiment [4] (1000 nM); 3.33% in experiment [4] (10000 nM); 90.7% in [5] (3 nM); 97.2% in [5] (30 nM); 81.7% in [5] (100 nM). The normalised viability in experiment [6] (3 nM) was found to be 101%; in [6] (30 nM), 103%; in [6] (100 nM), 115%; in experiment [7] (3 nM) it was 95.7%; in experiment [7] (30 nM) it was 79.5%; in experiment [7] (100 nM) it was 86.8%. Moreover, the normalised viability is 99.9% in [8] (3 nM); 106% in experiment [8] (30 nM); 98.7% in experiment [8] (100 nM); 99.4% in experiment [9] (10 nM); 54% in [9] (1000 nM); 12.9% in [9] (10000 nM). Also, the normalised viability turned out to be 90% in experiment [10] (10 nM); 33.2% in [10] (1000 nM); 15.4% in experiment [10] (10000 nM); 46.4% in [11] (10 nM); 41.4% in experiment [11] (1000 nM); 15.1% in [11] (10000 nM). Moreover, the normalised viability in experiment [12] (3 nM) was found to be 90.4%; in experiment [12] (30 nM), 90.8%; in [12] (100 nM), 72.5%; in experiment [13] (10 nM), 114%; in [13] (1000 nM) it was 74.7%; in experiment [13] (10000 nM), 7.02%. For the same molecule, the normalised viability in [14] (10 nM) amounted to 96.1%; in [14] (1000 nM), 40.7%; in experiment [14] (10000 nM), 7.79%; in experiment [15] (10 nM), 116%; in [15] (1000 nM), 38.8%; in experiment [15] (10000 nM), 17.4%. Besides, the normalised viability is 90.7% in experiment [16] (3 nM); 82.5% in [16] (30 nM); 64.6% in experiment [16] (100 nM); 112% in experiment [17] (10 nM); 66.9% in [17] (1000 nM); 16.3% in [17] (10000 nM). Moreover, the normalised viability in experiment [18] (10 nM) amounted to 87.8%; in experiment [18] (1000 nM) it was 37.2%; in experiment [18] (10000 nM) it was 11.1%; in experiment [19] (10 nM), 86.9%; in experiment [19] (1000 nM), 21.6%; in experiment [19] (10000 nM) it was 3.92%.
As for `Nc1cc(C(F)(F)F)c(-c2cc(N3CCOCC3)nc(N3CCOCC3)n2)cn1` [Buparlisib], the “EC50, CellTiter-Glo” value in experiment [1] worked out at 2710 nM.
On to `CCOC(=O)CCNc1cc(N2CCc3ccccc3CC2)nc(-c2ccccn2)n1` [GSK-J4], for which the “EC50, CellTiter-Glo” value in experiment [1] was 1890 nM.
The same measure, in the same setting: the result for `Cc1cc(Nc2cc(CN3CCOCC3)c3nc(C)c(Cc4ccc(Cl)cc4F)n3n2)n[nH]1` [Gandotinib] reads 711 nM.
On to `COc1cc2ncnc(Nc3ccc(F)c(Cl)c3)c2cc1OCCCN1CCOCC1` [Gefitinib], for which the “EC50, CellTiter-Glo” value in experiment [1] was determined as 2800 nM. Moreover, the normalised viability in experiment [2] (10 nM) is 104% and 116%; in experiment [2] (1000 nM), 58.7% and 65.5%; in experiment [2] (10000 nM) it was 27.3% and 22.7%; in experiment [3] (10 nM) it was 92.3% and 89.6%; in experiment [3] (1000 nM), 89% and 101%; in experiment [3] (10000 nM) it was 65.2% and 59.6%. Further, the normalised viability is 76.8% and 88.1% in experiment [4] (10 nM); 76% and 85.9% in experiment [4] (1000 nM); 60% and 62.1% in experiment [4] (10000 nM); 83% and 87.9% in experiment [5] (3 nM); 96.2% and 85.9% in experiment [5] (30 nM); 94.4% and 90.2% in experiment [5] (100 nM). Further, the normalised viability was 107% and 110% in experiment [6] (3 nM); 104% and 106% in [6] (30 nM); 108% and 102% in experiment [6] (100 nM); 90.7% and 85.5% in experiment [7] (3 nM); 84.7% and 89.6% in experiment [7] (30 nM); 88.5% and 85.5% in experiment [7] (100 nM). For the same molecule, the normalised viability in [8] (3 nM) was 89.8% and 92.1%; in experiment [8] (30 nM) it was 85.6% and 75.6%; in experiment [8] (100 nM), 99.3% and 83.1%; in experiment [9] (10 nM) it was 65.4% and 86.2%; in experiment [9] (1000 nM), 64.3% and 84.5%; in [9] (10000 nM), 68.2% and 68.7%. Besides, the normalised viability was 90.8% and 106% in experiment [10] (10 nM); 75.2% and 81.4% in experiment [10] (1000 nM); 64.6% and 70.1% in experiment [10] (10000 nM); 101% and 100% in [11] (1000 nM); 61.1% and 79.5% in experiment [11] (10000 nM); 88.5% and 105% in experiment [12] (3 nM). The normalised viability is 87% and 110% in [12] (30 nM); 91% and 109% in [12] (100 nM); 100% and 105% in experiment [13] (10 nM); 91.4% and 112% in experiment [13] (1000 nM); 77.4% and 74.4% in experiment [13] (10000 nM); 83.8% and 98.3% in experiment [14] (10 nM). The normalised viability is 94.6% and 114% in experiment [14] (1000 nM); 81.1% and 77% in [14] (10000 nM); 90.6% and 82.3% in experiment [15] (10 nM); 88.3% and 81.4% in experiment [15] (1000 nM); 69.9% and 62% in experiment [15] (10000 nM); 113% and 111% in experiment [16] (3 nM). The normalised viability in [16] (30 nM) was 85.4% and 90.8%; in experiment [16] (100 nM) it was 88.2% and 89.2%; in experiment [17] (10 nM), 97.6% and 107%; in experiment [17] (1000 nM) it was 57.8% and 65.9%; in experiment [17] (10000 nM), 38.7% and 38.4%; in [18] (10 nM), 89.2% and 87.1%. Further, the normalised viability in experiment [18] (1000 nM) is 92.2% and 89%; in experiment [18] (10000 nM) it was 71.9% and 64.2%; in experiment [19] (10 nM), 88.1% and 97.7%; in experiment [19] (1000 nM) it was 67.2%; in experiment [19] (10000 nM), 20.8% and 20.5%.
